Structures are written as SMILES. “Also recorded” adds a separate entry of the source.

One data set addresses T1, human AChE (Homo sapiens, UniProt P22303).
T1 construct: purchased Sigma-Aldrich (Prague, Czech Republic); host or cells: human red blood cells
Put plainly: Kinetic study of inhibition of AChE hydrolysis (Lineweaver-Burk, nonlinear regression). Format: biochemical. The note with it: for Ki: substrate acetylthiocholine; for type of inhibition: sum-of-squares F-test, p<0.05. As for the experimental part:
To obtain insight into the interactions of BIGI-3h and BIGI-3e with human AChE, a kinetic study was conducted. Substrate concentration - enzyme velocity curves were recorded in the presence of different concentrations of the tested compounds. […] The type of inhibition and corresponding inhibition constants (Ki and Ki') were determined by the nonlinear regression analysis of data. Results for each type model of inhibition (competitive, non-competitive, uncompetitive and mixed) were compared with sum-of-squares F-test. […] BIGI-3h and BIGI-3e bind to both free AChE and AChE-substrate complex, affecting the binding of substrate in the active site of enzyme, interacting with its allosteric peripheral anionic site. Interaction with this site causes conformational changes of the enzyme resulting also in changes of its active site. […]. Measured values are consistent with the IC50 values for AChE. It appears that both tested compounds tend to bind free AChE more than enzyme-substrate complex.

Data set [1] has as its target T2, Human red-blood cell acetylcholinesterase (hAChE; EC 3.1.1.7) (Homo sapiens, UniProt P22303).
T2 construct: Human red-blood cell acetylcholinesterase; purchased Sigma-Aldrich (Prague, Czech Republic); host or cells: human red blood cells
Put plainly: biochemical. The note with it: pH 7.4, 37 °C, mean ± SEM, read-out: AChE (IC50 µM). The procedure: The AChE and BuChE inhibitory activity of the tested compounds was determined using a modified Ellman's method^31, 32.Human red-blood cell acetylcholinesterase (hAChE; EC 3.1.1.7), and human recombinant butyrylcholinesterase (hBuChE; EC 3.1.1.8), 5,5'-dithiobis(2-nitrobenzoic acid) (Ellman's reagent, DTNB), phosphate buffer (PB, pH 7.4), acetylthiocholine (ATC), and butyrylthiocholine (BTC), were purchased from Sigma-Aldrich (Prague, Czech Republic). Nunc polystyrene 96-well microplates with flat-bottom shape (ThermoFisher Scientific, USA) were used for the measurement and all the assay were carried out in 0.1 M KH2PO4/K2HPO4 buffer, pH 7.4. Enzyme solution was prepared at activity 2.0 units/mL in 2 mL aliquots. The assay mixture (100 µL) consisted of 40 µL of 0.1 M phosphate buffer (pH 7.4), 20 µL of 0.01 M DTNB, 10 µL of enzyme, and 20 µL of 0.01 M substrate (ATC iodide solution). Tested compounds were dissolved first in methanol (BIGI 23 in DMSO) and then further diluted by assay buffer to the final concentration. […] Enzyme with the inhibitor was preincubated for 5 min in the assay mixture and then the reaction was started by addition of 20 µL of substrate (ATC for AChE, BTC for BuChE). […] Each concentration was assayed in triplicate. The obtained data were used to compute the percentage inhibition (I; Equation 1): I = 1−(ΔAi)/(ΔA0) [%] [formula] ΔAi indicates the absorbance change provided by cholinesterase exposed to AChE inhibitors and ΔA0 indicates absorbance change caused by intact cholinesterase (phosphate buffer was used instead of AChE inhibitor solution).

The nature of data set [2]: Prediction of blood-brain barrier penetration (PAMPA). The note with it: for CNS: PAMPA prediction of ability to cross the blood-brain barrier. Type of data set: in vitro ADME. As for the experimental part:
To predict passive blood-brain penetration of novel compounds modification of the parallel artificial membrane permeation (PAMPA) assay has been used based on reported protocol^38, 39. The filter membrane of the donor plate was coated with PBL (Polar Brain Lipid, Avanti, USA) in dodecane (4 µl of 20 mg/ml PBL in dodecane) and the acceptor well was filled with 300 µl of PBS pH 7.4 buffer (VD). Tested compounds were dissolved first in DMSO (0.5% (V/V) final) and that diluted with PBS pH 7.4 to reach the final concentration 50 µM in the donor well. 300 µl of the donor solution was added to the donor wells (VA) and the donor filter plate was carefully put on the acceptor plate so that coated membrane was "in touch" with both donor solution and acceptor buffer. Test compound diffused from the donor well through the lipid membrane (Area=0.28cm^2) to the acceptor well. The concentration of the drug in both donor and the acceptor wells was assessed after 3, 4, 5 and 6 hours of incubation in quadruplicate using the UV plate reader Synergy HT (Biotek, USA) at the maximum absorption wavelength and the standard curve for each compound. […]

For a further data set, the target named is T3, Human recombinant GSK-3β (Homo sapiens, UniProt P49841).
T3 construct: purchased Millipore (Millipore Iberica S.A.U.)
T3 sequence (P49841 whole entry): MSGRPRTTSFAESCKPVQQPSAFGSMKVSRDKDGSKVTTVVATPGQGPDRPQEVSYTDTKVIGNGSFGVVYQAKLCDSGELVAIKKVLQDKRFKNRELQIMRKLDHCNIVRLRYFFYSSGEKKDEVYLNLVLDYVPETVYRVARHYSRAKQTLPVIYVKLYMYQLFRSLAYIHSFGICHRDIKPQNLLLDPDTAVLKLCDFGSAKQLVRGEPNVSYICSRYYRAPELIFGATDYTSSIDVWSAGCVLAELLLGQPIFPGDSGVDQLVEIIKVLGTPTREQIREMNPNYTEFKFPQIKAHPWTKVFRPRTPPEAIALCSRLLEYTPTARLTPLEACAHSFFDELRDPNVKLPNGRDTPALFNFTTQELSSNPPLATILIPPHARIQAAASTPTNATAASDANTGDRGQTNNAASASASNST
In words: GSK-3β inhibition in vitro assay (Kinase-Glo luminescence). Format: biochemical. The note with it: ATP 1 µM, GSM substrate 25 µM; mean ± SEM. The procedure:
Human recombinant GSK-3β, prephosphorylated polypeptide substrate and white 96-well plates were purchased from Millipore (Millipore Iberica S.A.U.). Kinase-Glo Luminescent Kinase Assay was obtained from Promega (Promega Biotech Iberica, SL). Adenosinetriphosphate (ATP) and all other reagents were from Sigma-Aldrich. Assay buffer contained 50 mM 4-(2-hydroxyethyl)-1- piperazineethanesulfonic acid (HEPES) (pH 7.5), 1 mM ethylenediaminetetraacetic acid (EDTA), 1 mM ethylene glycol tetraacetic acid (EGTA), and 15 mM magnesium acetate. The in solution experiments for GSK-3β inhibition analysis were performed by following the method developed by Baki et al^42. In a typical assay, 10 µL of test compound (dissolved in DMSO at 1 mM concentration and diluted in advance in assay buffer to the desired concentration) and 10 µL (20 ng) of enzyme were added to each well in presence of 20 µL of assay buffer containing GSM substrate and ATP in order to reach a 25 µM and 1 µM final concentration respectively. […] After a 30 min incubation time at 30 °C, the enzymatic reaction was stopped by adding 40 µL of Kinase-Glo reagent. Glow-type luminescence was recorded after 10 min using a VictorX 3 PerkinElmer plate reader. […]. The linear regression parameters were determined and the IC50 extrapolated (GraphPad Prism 4.0, GraphPad Software Inc.).

Setting [3] is: binding to AChE-substrate complex.

T2 sequence (P22303 32-617 isoform P22303-2 limits assumed): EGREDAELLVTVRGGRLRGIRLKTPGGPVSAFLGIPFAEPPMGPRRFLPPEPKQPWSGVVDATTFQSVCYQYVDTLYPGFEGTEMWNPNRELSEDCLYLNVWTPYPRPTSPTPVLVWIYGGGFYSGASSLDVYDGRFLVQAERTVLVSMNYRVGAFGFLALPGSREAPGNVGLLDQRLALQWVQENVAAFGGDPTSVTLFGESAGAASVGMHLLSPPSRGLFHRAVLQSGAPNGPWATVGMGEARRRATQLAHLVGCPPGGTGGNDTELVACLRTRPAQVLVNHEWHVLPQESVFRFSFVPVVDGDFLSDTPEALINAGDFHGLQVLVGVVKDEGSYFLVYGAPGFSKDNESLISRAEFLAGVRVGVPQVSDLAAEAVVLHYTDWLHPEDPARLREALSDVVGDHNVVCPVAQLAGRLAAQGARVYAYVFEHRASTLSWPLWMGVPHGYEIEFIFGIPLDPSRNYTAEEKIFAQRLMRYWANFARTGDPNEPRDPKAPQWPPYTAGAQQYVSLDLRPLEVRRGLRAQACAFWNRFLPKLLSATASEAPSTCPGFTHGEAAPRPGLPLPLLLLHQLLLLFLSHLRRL
T1 sequence (P22303 32-617 isoform P22303-2 limits assumed): as above

As usually defined, the Ki is the dissociation constant of the complex between target and ligand, obtained from inhibition or displacement. A higher Ki goes with a looser hold on the target. As usually defined, the IC50 is the point on the concentration scale where inhibition reaches its midpoint. As for `CCOC(=O)C1=C(C)N(CCC2CCN(Cc3ccccc3)CC2)C(=O)NC1c1coc2c(Cl)cc(Cl)cc2c1=O` (racemic) [BIGI-3h, ethyl 1-(2-(1-benzylpiperidin-4-yl)ethyl)-4-(6,8-dichloro-4-oxo-4H-chromen-3-yl)-6-methyl-2-oxo-1,2,3,4-tetrahydropyrimidine-5-carboxylate], the Ki on human AChE (setting [3]) is 77.6 ± 16.4 nM; on human AChE (binding to free AChE), 21.5 ± 5.19 nM. For the same compound, the type of inhibition entry at human AChE is “mixed non-competitive”. Moreover, the IC50 in data set [1] came to 0.06 µM; on Human recombinant GSK-3β, 29.1 µM. Further, the CNS entry in data set [2] was “best ability to cross the BBB; also recorded: CNS (+)”. The Papp at 50 µM in data set [2] (PAMPA, PBS pH 7.4, 50 µM in donor well, read-out: Pe ± SEM) is 4 ± 0.3 ×10⁻⁶ cm/s.

As for `CCOC(=O)C1=C(C)N(CCC2CCN(Cc3ccccc3)CC2)C(=O)NC1c1coc2ccc(Br)cc2c1=O` (centres unmarked) [BIGI-3e, ethyl 1-(2-(1-benzylpiperidin-4-yl)ethyl)-4-(6-bromo-4-oxo-4H-chromen-3-yl)-6-methyl-2-oxo-1,2,3,4-tetrahydropyrimidine-5-carboxylate], the figures for the Ki at human AChE (setting [3]) and on human AChE (binding to free AChE) were 89.5 ± 12.5 nM and 51 ± 12.7 nM, respectively. Also, on human AChE, the type of inhibition entry was “mixed non-competitive”. For the same compound, the half-inhibitory concentration (IC50) in data set [1] turned out to be 0.06 µM. Further, the CNS result in data set [2] is reported as “CNS (+/-)”.

Take `CCOC(=O)C1=C(C)N(CCCC2CCN(Cc3ccccc3)CC2)C(=O)NC1c1coc2cc(CC)ccc2c1=O` (centres unmarked) [BIGI-3k, ethyl 1-(3-(1-benzylpiperidin-4-yl)propyl)-4-(7-ethyl-4-oxo-4H-chromen-3-yl)-6-methyl-2-oxo-1,2,3,4-tetrahydropyrimidine-5-carboxylate]: the IC50 in data set [1] is 0.5 ± 0.02 µM. The CNS result in data set [2] was “CNS (-)”.

(Values after EP4168403B1 (priority 2020, dated 2021).)
